Patent US20250163067A1, “NUCLEOBASE-SUBSTITUTED PIPERIDINYL-PYRIDINES AND RELATED COMPOUNDS AND THEIR USE IN TREATING DISEASES AND CONDITIONS” (K36 Therapeutics, Inc., priority 2023, published 2025)

molecular target: recombinant human NSD2 (Homo sapiens (Human), UniProt O96028); assay: NSD2 inhibitory activity, modified RBC HotSpot HMT Assay; assay type: biochemical; settings: recombinant human NSD2 (amino acids 2-end) 2 nM, chicken oligonucleosomes 0.05 mg/ml, 3H-SAM 1 μM, 1 hour at 30° C
Experimental: Exemplary compounds were tested for NSD2 inhibitory activity using a modified RBC HotSpot HMT Assay.
A reaction mixture was prepared by adding oligonucleosomes from Chicken (0.05 mg/ml) to freshly prepared reaction buffer containing 50 mM Tris-HCl (pH 8.5), 50 mM NaCl, 5 mM MgCl2, 0.01% Brij35, 1 mM DTT, and 1% DMSO followed by the addition of recombinant human NSD2, (amino acids 2-end) with N-terminal His tag (2 nM; GenBank Accession No. NM 001042424; MW=155.5 kDa; expressed in Sf9 insect cells) and gentle mixing. The test compounds were diluted in DMSO, added to the reaction mixture in nanoliter amounts by using Acoustic Technology (Echo 550, LabCyte Inc. Sunnyvale, CA) and incubated for 20 minutes at room temperature. The reaction was initiated by the addition of S-Adenosyl-L-[methyl-^3H] methionine (^3H-SAM; 1 μM), and the mixture was incubated for 1 hour at 30° C. The reaction mixture was delivered to filter paper and the methylated substrate was quantified by scintillation counting. Data analysis was performed using Excel and GraphPad Prism software for IC50 curve fits. For additional information on the histone methyltransferase assay, see, for example, Horiuchi K Y, et al., “Assay Development for Histone Methyltransferases,” Assay Drug Dev Technol. 2013 May; 11 (4): 227-36.

Chain of recombinant human NSD2 (O96028 2-1365 limits assumed): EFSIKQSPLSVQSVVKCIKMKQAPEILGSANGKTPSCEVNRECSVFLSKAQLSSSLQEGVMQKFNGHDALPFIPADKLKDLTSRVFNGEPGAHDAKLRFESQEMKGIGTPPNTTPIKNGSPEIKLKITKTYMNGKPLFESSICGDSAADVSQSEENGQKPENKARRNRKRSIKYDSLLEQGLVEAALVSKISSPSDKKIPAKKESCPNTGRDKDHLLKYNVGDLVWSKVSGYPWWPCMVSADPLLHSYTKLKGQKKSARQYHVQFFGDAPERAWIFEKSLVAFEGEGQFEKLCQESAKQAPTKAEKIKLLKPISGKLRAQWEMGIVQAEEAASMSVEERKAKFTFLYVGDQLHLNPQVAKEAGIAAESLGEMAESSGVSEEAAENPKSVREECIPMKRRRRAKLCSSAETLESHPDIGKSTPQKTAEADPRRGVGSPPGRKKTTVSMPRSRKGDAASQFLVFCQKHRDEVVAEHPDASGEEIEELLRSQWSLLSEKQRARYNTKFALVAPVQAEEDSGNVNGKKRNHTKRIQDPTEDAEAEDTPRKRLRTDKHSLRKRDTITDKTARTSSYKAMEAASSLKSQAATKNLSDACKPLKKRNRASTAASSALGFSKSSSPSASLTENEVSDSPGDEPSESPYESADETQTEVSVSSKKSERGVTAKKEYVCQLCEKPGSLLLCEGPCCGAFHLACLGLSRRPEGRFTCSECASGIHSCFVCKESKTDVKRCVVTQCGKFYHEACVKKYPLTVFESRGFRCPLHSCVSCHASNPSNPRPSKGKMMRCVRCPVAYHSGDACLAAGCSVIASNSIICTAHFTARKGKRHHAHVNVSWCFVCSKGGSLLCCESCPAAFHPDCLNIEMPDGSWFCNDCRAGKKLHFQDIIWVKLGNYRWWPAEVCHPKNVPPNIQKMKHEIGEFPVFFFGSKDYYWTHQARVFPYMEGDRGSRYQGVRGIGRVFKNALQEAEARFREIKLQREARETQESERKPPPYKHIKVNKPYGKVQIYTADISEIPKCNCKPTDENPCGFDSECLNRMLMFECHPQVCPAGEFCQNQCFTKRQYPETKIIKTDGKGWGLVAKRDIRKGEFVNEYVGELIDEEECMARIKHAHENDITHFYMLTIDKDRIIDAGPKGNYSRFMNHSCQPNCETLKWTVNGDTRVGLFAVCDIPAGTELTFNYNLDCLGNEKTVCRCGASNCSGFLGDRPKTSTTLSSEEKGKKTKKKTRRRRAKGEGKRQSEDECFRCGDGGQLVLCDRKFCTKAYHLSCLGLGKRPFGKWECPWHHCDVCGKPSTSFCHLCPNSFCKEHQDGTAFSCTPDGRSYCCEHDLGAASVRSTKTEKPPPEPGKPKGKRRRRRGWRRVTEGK

COc1cc(F)c(-c2cc(Cc3cnc4c(N)nccn34)c(N3CCC[C@](N)([C@H](O)C(F)F)C3)cn2)cc1F [Compound I-4, (S)-1-((R)-3-AMINO-1-(4-((8-AMINOIMIDAZO [1,2-A]PYRAZIN-3-YL)METHYL)-6-(2,5-DIFLUORO-4-METHOXYPHENYL)PYRIDIN-3-YL)PIPERIDIN-3-YL)-2,2-DIFLUOROETHAN-1-OL] and COc1cc(F)c(-c2cc(Cn3ccnc3)c(N3CCC[C@](N)([C@H](O)C(F)F)C3)cn2)cc1F [IV-20] cannot be ordered by IC50: no more than 1000 nM for the first, greater than 1000 nM for the second.

COc1cc(F)c(-c2cc(Cn3cnc4cncnc43)c(N3CCC[C@](N)([C@H](O)C(F)F)C3)cn2)cc1F [IV-1] and COc1cc(F)c(-c2cc(Cn3cnc4ncncc43)c(N3CCC[C@](N)([C@H](O)C(F)F)C3)cn2)cc1F [IV-2] cannot be ordered by IC50: no more than 1000 nM for the first, greater than 1000 nM for the second.

COc1cc(F)c(-c2cc(CN3CCc4cncnc43)c(N3CCC[C@](N)([C@H](O)C(F)F)C3)cn2)cc1F [IV-3] and COc1cc(F)c(-c2cc(Cn3ncc4ncncc43)c(N3CCC[C@](N)([C@H](O)C(F)F)C3)cn2)cc1F [IV-9] cannot be ordered by IC50: greater than 1000 nM for the first, greater than 1000 nM for the second.

COc1cc(F)c(-c2cc(Cn3ccc4cncnc43)c(N3CCC[C@](N)([C@H](O)C(F)F)C3)cn2)cc1F [IV-4] and COc1cc(F)c(-c2cc(Cn3ccc4ncncc43)c(N3CCC[C@](N)([C@H](O)C(F)F)C3)cn2)cc1F [IV-5] cannot be ordered by IC50: greater than 1000 nM for the first, no more than 1000 nM for the second.

COc1cc(F)c(-c2cc(Cn3cnc4ccccc43)c(N3CCC[C@](N)([C@H](O)C(F)F)C3)cn2)cc1F [IV-6] and COc1cc(F)c(-c2cc(Cn3ccc4ncccc43)c(N3CCC[C@](N)([C@H](O)C(F)F)C3)cn2)cc1F [IV-14] cannot be ordered by IC50: greater than 1000 nM for the first, greater than 1000 nM for the second.

COc1cc(F)c(-c2cc(Cn3cnc4nccnc43)c(N3CCC[C@](N)([C@H](O)C(F)F)C3)cn2)cc1F [IV-7] and COc1cc(F)c(-c2cc(Cn3ccc4nccnc43)c(N3CCC[C@](N)([C@H](O)C(F)F)C3)cn2)cc1F [IV-13] cannot be ordered by IC50: greater than 1000 nM for the first, greater than 1000 nM for the second.

COc1cc(F)c(-c2cc(Cn3cnc4cnncc43)c(N3CCC[C@](N)([C@H](O)C(F)F)C3)cn2)cc1F [IV-8] and COc1cc(F)c(-c2cc(Cn3cnnc3)c(N3CCC[C@](N)([C@H](O)C(F)F)C3)cn2)cc1F [IV-30] cannot be ordered by IC50: greater than 1000 nM for the first, greater than 1000 nM for the second.

COc1cc(F)c(-c2cc(Cn3ncc4cncnc43)c(N3CCC[C@](N)([C@H](O)C(F)F)C3)cn2)cc1F [IV-10] and COc1cc(F)c(-c2cc(Cn3ncc4cnccc43)c(N3CCC[C@](N)([C@H](O)C(F)F)C3)cn2)cc1F [IV-15] cannot be ordered by IC50: greater than 1000 nM for the first, greater than 1000 nM for the second.

COc1cc(F)c(-c2cc(CN3Cc4nccnc4C3)c(N3CCC[C@](N)([C@H](O)C(F)F)C3)cn2)cc1F [IV-11] and COc1cc(F)c(-c2cc(Cn3ncc4nccnc43)c(N3CCC[C@](N)([C@H](O)C(F)F)C3)cn2)cc1F [IV-12] cannot be ordered by IC50: greater than 1000 nM for the first, greater than 1000 nM for the second.

COc1cc(F)c(-c2cc(Cn3cnc4c(O)nc(N)nc43)c(N3CCC[C@](N)([C@H](O)C(F)F)C3)cn2)cc1F [IV-17] and COc1cc(F)c(-c2cc(Cn3ccc(N)nc3=O)c(N3CCC[C@](N)([C@H](O)C(F)F)C3)cn2)cc1F [IV-18] cannot be ordered by IC50: greater than 1000 nM for the first, greater than 1000 nM for the second.

COc1cc(F)c(-c2cc(CN3CCC(=O)NC3=O)c(N3CCC[C@](N)([C@H](O)C(F)F)C3)cn2)cc1F [IV-19] and COc1cc(F)c(-c2cc(CN3CCNC3=O)c(N3CCC[C@](N)([C@H](O)C(F)F)C3)cn2)cc1F [IV-22] cannot be ordered by IC50: greater than 1000 nM for the first, greater than 1000 nM for the second.

COc1cc(F)c(-c2cc(Cn3ccnn3)c(N3CCC[C@](N)([C@H](O)C(F)F)C3)cn2)cc1F [IV-21] and COc1cc(F)c(-c2cc(Cn3cnnn3)c(N3CCC[C@](N)([C@H](O)C(F)F)C3)cn2)cc1F [IV-29] cannot be ordered by IC50: greater than 1000 nM for the first, greater than 1000 nM for the second.

COc1cc(F)c(-c2cc(Cn3ccc4cnccc43)c(N3CCC[C@](N)([C@H](O)C(F)F)C3)cn2)cc1F [IV-23] and COc1cc(F)c(-c2cc(CNc3cc4[nH]ccc4cn3)c(N3CCC[C@](N)([C@H](O)C(F)F)C3)cn2)cc1F [IV-28] cannot be ordered by IC50: greater than 1000 nM for the first, greater than 1000 nM for the second.

COc1cc(F)c(-c2cc(CN3NCc4cnc(N)nc43)c(N3CCC[C@](N)([C@H](O)C(F)F)C3)cn2)cc1F [IV-24] gave an IC50 greater than 1000 nM.
